What was measured:
T-47D = test: Caspase cascade activation (caspase activity ratio and potency), fluorogenic N-(Ac-DEVD)-N'-ethoxycarbonyl-R110 substrate; assay type: cell-based, Human
Method: Human breast cancer cell lines T-47D and DLD-1 were grown according to media component mixtures designated by American Type Culture Collection+10% FCS (Invitrogen Corporation), in a 5% CO2−95% humidity incubator at 37° C. T-47D and DLD-1 cells were maintained at a cell density between 50 and 80% confluency at a cell density of 0.1 to 0.6×10^6 cells/mL. Cells were harvested at 600×g and resuspended at 0.65×10^6 cells/mL into appropriate media+10% FCS. An aliquot of 22.5 μL of cells was added to a well of a 384-well microtiter plate containing 2.5 μL of a 10% DMSO in RPMI-1640 media solution containing 0.16 to 100 μM of (2-chloro-quinazolin-4-yl)-(4-methoxy-phenyl)-methyl-amine or other test compound (0.016 to 10 μM final). An aliquot of 22.5 μL of cells was added to a well of a 384-well microtiter plate containing 2.5 μL of a 10% DMSO in RPMI-1640 media solution without test compound as the control sample. […] […] The samples were mixed by agitation and incubated at room temperature. Using a fluorescent plate reader (Model SPECTRAfluor Plus, Tecan), an initial reading (T=0) was made approximately 1-2 min after addition of the substrate solution, employing excitation at 485 nm and emission at 530 nm, to determine the background fluorescence of the control sample. After the 3 h incubation, the samples were read for fluorescence as above (T=3 h).
The Relative Fluorescence Unit values (RFU) were used to calculate the sample readings as follows: RFU(T=3h)−Control RFU(T=0)=Net RFU(T=3h)
The activity of caspase cascade activation was determined by the ratio of the net RFU value for (2-chloro-quinazolin-4-yl)-(4-methoxy-phenyl)-methyl-amine or other test compounds to that of control samples. The EC50 (nM) was determined by a sigmoidal dose-response calculation (Prism 3.0, GraphPad Software Inc.).

[1] = Determination of brain/plasma AUC ratio after tail vein injection; assay type: in vivo; details: mouse, intravenous, 0.0875 mg/mouse, mice, 0.10 mL of 0.875 mg/mL, AUC0-∞ from median plasma and brain concentrations
Method: For each test compound, forty five mice were injected via the tail vein with 0.10 mL of a 0.875 mg/mL solution of test compound dissolved in a formulation of 5% Cremophor, 5% Ethanol, and 90% D5W, or a formulation variation thereof. Five mice at each collection time point of approximately 0.05, 0.25, 0.50, 1.00, 2.00, 4.00, 8.00, 12.0 and 24.0 hours post dose were euthanized by halothane inhalation. Approximately 0.30 to 1.00 mL of blood from each animal was collected via cardiac puncture into tubes containing EDTA. Immediately after exsanguination, the whole brain from each animal was removed. The plasma and whole brain samples were frozen (˜20° C.) separately until analysis. Plasma and brain samples were allowed to thaw at room temperature on the day of sample analysis. Prior to homogenization, the brains were weighed and three volumes of sterile water were added. Plasma and homogenized brain samples were extracted using a protein precipitation and filtration method. Briefly, 0.20 mL acetonitrile was added to 0.10 mL of sample in a Varian Captiva 20 μm filtration plate. A vacuum was applied to the plate and filtrates were collected. Filtrates were injected onto LC-MS/MS ABI2000 QTrap LC-MS/MS equipped with a reverse phase liquid chromatography inlet. Peak areas of the m/z product ions of the test compounds were measured against the peak are of the m/z internal standard production. The range of quantitation for the assay was between 1.00 and 1000 ng/mL for both analytes.
Pharmacokinetic parameters (PK) for the test compounds were estimated on median plasma and brain concentrations using non-compartmental analysis in WinNonlin (Pharsight Corp., Mountain View, Calif.). The validation of this software program is reported in MPI-REP-PA-03.00. All values below the quantitation limit (BQL) of 1.00 ng/mL were excluded from PK analysis. The areas under the concentration-time curve (AUC0-∞) were calculated using a linear/log trapezoidal method.

| Compound | Caspase activity Ratio (net RFU of test compound to control) (T-47D; T-47D (24 hr)) | Caspase activity Ratio (net RFU of test compound to control) (T-47D; T-47D (48 hr)) | further results |
| --- | --- | --- | --- |
| Cc1nc(N(C)c2ccc(N(C)C)cc2)c2ccccc2n1 [Example 35, (4-Dimethylamino-phenyl)-(2-methyl-quinazolin-4-yl)-methyl-amine] | 8.5 | – | Kp [1]: 16.1 |
| COc1ccc(N(C)c2nc(OC)nc3ccccc23)cc1 [Example 11, (2-methoxy-quinazolin-4-yl)-(4-methoxyphenyl)-methylamine] | – | – | Kp [1]: 6.14 |
| COc1ccccc1N(C)c1nc(Cl)nc2ccccc12 [Example 57, (2-Chloro-quinazolin-4-yl)-(2-methoxy-phenyl)-methyl-amine] | – | 14.3 | – |
| COc1ccc(N(C)c2nc(N3CCOCC3)nc3ccccc23)cc1 [Example 6, (4-Methoxy-phenyl)-methyl-(2-morpholin-4-yl-quinazolin-4-yl)-amine] | 5.7 | 11.5 | – |
| COc1ccc(N(C)c2nc(Cl)nc3ccccc23)c(OC)c1 [Example 9, (2-Chloro-quinazolin-4-yl)-(2,4-dimethoxy-phenyl)-methyl-amine] | – | 12.4 | – |
| COc1ccc(N(C)c2nc(N(C)C)nc3ccc([N+](=O)[O-])cc23)cc1 [Example 46, (2-Dimethylamino-6-nitroquinazolin-4-yl)-(4-methoxyphenyl)-methylamine] | 4.2 | – | – |
| COc1ccc(N(C)c2nc(NCc3ccccc3)nc3ccccc23)cc1 [Example 42, (2-Benzylamino-quinazolin-4-yl)-(4-methoxyphenyl)-methylamine] | 8.2 | – | – |
| CNc1nc(N(C)c2ccc(N(C)C)cc2)c2ccccc2n1 [Example 47, (2-Methylamino-quinazolin-4-yl)-(4-dimethylaminophenyl)-methylamine] | 3.9 | – | EC50 (T-47D; Homo sapiens, T47D, T-47D (24 hr)): 29 nM |
| CN(c1ccc(O)cc1)c1nc(Cl)nc2ccccc12 [Example 58, (2-Chloro-quinazolin-4-yl)-(4-hydroxyphenyl)-methylamine] | – | 12.5 | – |
| CSc1ccc(N(C)c2nc(C)nc3ccccc23)cc1 [Example 49, (4-Methylthio-phenyl)-(2-methyl-quinazolin-4-yl)-methylamine] | 7.5 | – | – |
| COc1ccc(N(C)c2nc(Cl)nc3ccc(C)cc23)cc1 [Example 13, (2-Chloro-6-methyl-quinazolin-4-yl)-(4-methoxy-phenyl)-methyl-amine] | – | 4.9 | – |
| COc1ccc(N(C)c2nc(C)nc3ccc(N(C)C)cc23)cc1 [Example 52, (6-Dimethylamino-2-methyl-quinazolin-4-yl)-(4-methoxy-phenyl)-methylamine] | 6.4 | – | – |
| COc1ccc(N(C)c2nc(Cl)nc3ccc(Cl)cc23)cc1 [Example 16, (2,6-Dichloro-quinazolin-4-yl)-(4-methoxy-phenyl)-methyl-amine] | – | 6.5 | – |
| COc1ccc(N(C)c2nc(Cl)nc3cc(Cl)ccc23)cc1 [Example 59, (2,7-Dichloro-quinazolin-4-yl)-(4-methoxy-phenyl)-methyl-amine] | – | 12.7 | – |
| COc1ccc(OC)c(N(C)c2nc(Cl)nc3ccccc23)c1 [Example 56, (2-Chloro-quinazolin-4-yl)-(2,5-dimethoxy-phenyl)-methyl-amine] | 8.6 | 14.6 | – |
| COc1ccc(N(C)c2nc(N(C)C)nc3ccccc23)cc1 [Example 38, (2-Dimethylamino-quinazolin-4-yl)-(4-methoxy-phenyl)-methyl-amine] | 8.2 | – | – |
| COc1ccc(N(C)c2nc(C)nc3ccccc23)nc1 [Example 41, (5-Methoxy-pyridin-2-yl)-(2-methyl-quinazolin-4-yl)-methyl-amine] | 5.0 | – | – |

| Compound | Caspase activity Ratio (net RFU of test compound to control) (T-47D; T-47D (24 hr)) | Caspase activity Ratio (net RFU of test compound to control) (T-47D; T-47D (48 hr)) | further results |
| --- | --- | --- | --- |
| COc1ccc(N(C)c2nc(Cl)nc3c(Cl)cccc23)cc1 [Example 29, (2,8-Dichloro-quinazolin-4-yl)-(4-methoxy-phenyl)-methyl-amine] | – | 7.8 | – |
| CCN(c1ccc(OC)cc1)c1nc(Cl)nc2ccccc12 [Example 8, (2-Chloro-quinazolin-4-yl)-ethyl-(4-methoxy-phenyl)-amine] | – | 6.1 | – |
| Cc1nc(N(C)c2ccc(OC(C)C)cc2)c2ccccc2n1 [Example 27, (4-Isopropoxy-phenyl)-(2-methyl-quinazolin-4-yl)-methyl-amine] | 6.2 | – | – |
| COc1ccc(N(C)c2nc(Cl)nc3cc(C)ccc23)cc1 [Example 60, (2-Chloro-7-methyl-quinazolin-4-yl)-(4-methoxy-phenyl)-methyl-amine] | – | 6.2 | – |
| COc1ccc(N(C)c2nc(Cl)nc3ccccc23)cc1OC [Example 19, (2-Chloro-quinazolin-4-yl)-(3,4-dimethoxy-phenyl)-methyl-amine] | – | 13.1 | – |
| Cc1nc(N(C)c2ccc(N(C)C)cc2)c2cc([N+](=O)[O-])ccc2n1 [Example 44, (2-Methyl-6-nitroquinazolin-4-yl)-(4-dimethylaminophenyl)-methylamine] | 2.6 | – | – |
| COc1ccc(N(C)c2nc(Cl)nc3ccccc23)cn1 [Example 7, (2-Chloro-quinazolin-4-yl)-(6-methoxy-pyridin-3-yl)-methyl-amine] | 6.7 | – | – |
| CN(c1ccc(OC(F)(F)F)cc1)c1nc(Cl)nc2ccccc12 [Example 4, (2-Chloro-quinazolin-4-yl)-(4-trifluoromethoxy-phenyl)-methyl-amine] | 10.3 | – | – |
| CN(c1ccc2c(c1)OCO2)c1nc(Cl)nc2ccccc12 [Example 18, (2-Chloro-quinazolin-4-yl)-(3,4-methylenedioxyphenyl)-methyl-amine] | – | 12.5 | – |
| COc1ccc(N(C)c2nc(C)nc3ccccc23)cn1 [Example 33, (2-Methyl-quinazolin-4-yl)-(6-methoxy-pyridin-3-yl)-methyl-amine] | – | – | Kp [1]: 5.82 |
| COc1ccc(N(C)c2nc(CF)nc3ccccc23)cc1 [Example 12, (2-Fluoromethyl-quinazolin-4-yl)-(4-methoxy-phenyl)-methyl-amine] | – | 9.0 | – |
| CC(=O)N(C)c1nc(N(C)c2ccc(N(C)C)cc2)c2ccccc2n1 [Example 48, [2-(N-Methyl-acetamido)-quinazolin-4-yl]-(4-dimethylaminophenyl)-methylamine] | 2.4 | – | – |
| Cc1nc(N(C)c2ccc(N(C)C)nc2)c2ccccc2n1 [Example 50, (2-Dimethylamino-pyridine-5-yl)-(2-methyl-quinazolin-4-yl)-methylamine] | 9.0 | – | – |
| CCCOc1ccc(N(C)c2nc(Cl)nc3ccccc23)cc1 [Example 20, (2-Chloro-quinazolin-4-yl)-(4-propoxy-phenyl)-methyl-amine] | – | 11.3 | – |
| COc1ccc(N(C)c2nc(Cl)nc3cccc(C)c23)cc1 [Example 14, (2-Chloro-5-methyl-quinazolin-4-yl)-(4-methoxy-phenyl)-methyl-amine] | – | 10.8 | – |
| COc1ccc(N(C)c2nc(SC)nc3ccccc23)cc1 [Example 37, (2-Methylthio-quinazolin-4-yl)-(4-methoxy-phenyl)-methyl-amine] | 5.2 | – | – |
